Where two headings read alike, the source gives them in different places.
Tests used:
Type in all cases: cell-based, human
[1] = test system: HT-29 (colorectal carcinoma, B-RafV600E) cells; test: Cell proliferation (Alamar Blue) assay, HT-29
Outline: (§1)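 A 72 h exposure to compound (3-fold series, typically 0.0005 to 10 uM) of cells seeded at 5000/well precedes a 1-3 h Alamar Blue (1×) incubation. Growth inhibition is quantified by fluorescence and fitted to give IC50.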

[2] = test system: HCT116 (colorectal carcinoma, K Ras G13D) cells; test: Cell proliferation (Alamar Blue) assay, HCT116
Outline: as §1

[3] = test system: phosphorylation of RSK1(S380) (the downstream target of ERK1/2); test: Phospho-RSK1(S380) ELISA assay in HT-29 cells; conditions: phospho-RSK1(S380), read-out: Mechanistic Cell Assay RSK1 Phos HT29 IC50
Outline: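 HT-29 colorectal carcinoma cells (B-RafV600E), plated overnight at 37° C./5% CO2, were treated with compound dilutions for 2 h. Lysates were analysed by phospho-RSK1(Ser380) sandwich ELISA with absorbance at 450 nm. IC50 came from a sigmoidal variable-slope dose-response fit.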

[4] = Homo sapiens, HT-29, HT29 cells
[5] = Homo sapiens, HCT-116, HCT116 cells

Row | SMILES | IC50 [1, 4] | IC50 [2, 5] | IC50 [3, 4] | IC50 ([1]; HT29 cells) | IC50 ([3]; HT29 cells) | IC50 ([2]; HCT116 cells)
1 | Cc1cnc(Nc2ccc(F)cc2Cl)nc1-n1ccc(C(=O)NC(COC(=O)C(N)CC(C)C)c2ccccc2)c1 (stereo not drawn) [Example 150, 2-(1-(2-((2-chloro-4-fluorophenyl)-amino)-5-methyl-pyrimidin-4-yl)-1H-pyrrole-3-carboxamido)-2-phenylethyl 2-amino-4-methyl-pentanoate] | > 2500 nM | > 2500 nM | 500 to 2500 nM | – | – | –
2 | Cc1cnc(NC2CCCOC2)nc1-n1ccc(C(=O)N[C@H](CO)c2cccc(Cl)c2)c1 (stereo partly drawn) [Example 156, N-((S)-1-(3-chloro-phenyl)-2-hydroxy-ethyl)-1-(5-methyl-2-((tetrahydro-2H-pyran-3-yl)amino)-pyrimidin-4-yl)-1H-pyrrole-3-carboxamide] | – | – | – | 250 to 500 nM | 250 to 500 nM | 500 to 2500 nM
3 | Cc1cnc(Nc2cccc3c2OC(F)(F)O3)nc1-n1ccc(C(=O)NC(CO)c2cccc(Cl)c2)c1 (stereo not drawn) [Example 160, N-(1-(3-chloro-phenyl)-2-hydroxy-ethyl)-1-(2-((2,2-difluoro-benzo[d][1,3]dioxol-4-yl)amino)-5-methyl-pyrimidin-4-yl)-1H-pyrrole-3-carboxamide] | > 2500 nM | > 2500 nM | 500 to 2500 nM | – | – | –
4 | Cc1cnc(Nc2ccc(F)cc2)cc1-n1ccc(C(=O)NC(CN)c2ccc(F)c(Cl)c2)c1 (stereo not drawn) [Example 164, N-(2-amino-1-(3-chloro-4-fluoro-phenyl)ethyl)-1-(2-((4-fluorophenyl)-amino)-5-methyl-pyridin-4-yl)-1H-pyrrole-3-carboxamide] | 500 to 2500 nM | > 2500 nM | 500 to 2500 nM | – | – | –
5 | Cc1cnc(NC2CCOC2)cc1-n1ccc(C(=O)NC(CO)c2cccc(Cl)c2)c1 (stereo not drawn) [Example 165, N-(1-(3-chloro-phenyl)-2-hydroxy-ethyl)-1-(5-methyl-2-((tetra-hydrofuran-3-yl)amino)pyridin-4-yl)-1H-pyrrole-3-carboxamide] | > 2500 nM | > 2500 nM | 500 to 2500 nM | – | – | –
6 | Cc1cnc(Nc2ccc(F)cc2Cl)nc1-n1cnc(C(=O)NC(CO)c2cccc(Cl)c2)c1 (stereo not drawn) [Example 166, 1-(2-((2-chloro-4-fluorophenyl)amino)-5-methyl-pyrimidin-4-yl)-N-(1-(3-chlorophenyl)-2-hydroxy-ethyl)-1H-imidazole-4-carboxamide] | 500 to 2500 nM | > 2500 nM | 250 to 500 nM | – | – | –
7 | CC[C@H](CO)Nc1ncc(C)c(-n2ccc(C(=O)NC(CO)c3cccc(Cl)c3)c2)n1 (stereo partly drawn) [Example 167, N-(1-(3-chloro-phenyl)-2-hydroxy-ethyl)-1-(2-(((R)-1-hydroxy-butan-2-yl)amino)-5-methyl-pyrimidin-4-yl)-1H-pyrrole-3-carboxamide] | 500 to 2500 nM | > 2500 nM | 500 to 2500 nM | – | – | –
8 | CC[C@H](CO)Nc1cc(-n2cnc(C(=O)NC(CO)c3cccc(Cl)c3)c2)c(Cl)cn1 (stereo partly drawn) [Example 168, 1-(5-chloro-2-(((R)-1-hydroxybutan-2-yl)amino)pyridin-4-yl)-N-(1-(3-chlorophenyl)-2-hydroxyethyl)-1H-imidazole-4-carboxamide] | > 2500 nM | > 2500 nM | 500 to 2500 nM | – | – | –
9 | O=C(N[C@H](CO)c1cccc(Cl)c1)c1cn(-c2ccnc(NC3CCOC3)c2)cn1 (stereo partly drawn) [Example 170, N-((S)-1-(3-chlorophenyl)-2-hydroxyethyl)-1-(2-((tetrahydrofuran-3-yl)amino)pyridin-4-yl)-1H-imidazole-4-carboxamide] | 500 to 2500 nM | > 2500 nM | > 2500 nM | – | – | –
10 | Cc1cnc(Nc2cccnc2)cc1-n1ccc(C(=O)NC(CO)c2ccc(F)c(Cl)c2)c1 (stereo not drawn) [Example 171, N-(1-(3-chloro-4-fluorophenyl)-2-hydroxyethyl)-1-(5-methyl-2-(pyridin-3-ylamino)pyridin-4-yl)-1H-pyrrole-3-carboxamide] | 500 to 2500 nM | > 2500 nM | > 2500 nM | – | – | –

Continued, values first:

Row | IC50 [1, 4] | IC50 [2, 5] | IC50 [3, 4] | IC50 ([1]; HT29 cells) | IC50 ([3]; HT29 cells) | IC50 ([2]; HCT116 cells) | SMILES
11 | ≤ 100 nM | 500 to 2500 nM | 100 to 250 nM | – | – | – | Cc1cnc(NC2CCOC2)nc1-n1ccc(C(=O)N[C@H](CO)c2cccc(Cl)c2)c1 (stereo partly drawn) [Example 151, N-((S)-1-(3-chlorophenyl)-2-hydroxy-ethyl)-1-(5-methyl-2-((tetrahydro-furan-3-yl)amino)pyrimidin-4-yl)-1H-pyrrole-3-carboxamide]
12 | – | 500 to 2500 nM | – | 100 to 250 nM | 100 to 250 nM | – | Cc1cnc(NC2CCCOC2)nc1-n1ccc(C(=O)N[C@H](CO)c2cccc(Cl)c2)c1 (stereo partly drawn) [Example 152, N-((S)-1-(3-chlorophenyl)-2-hydroxy-ethyl)-1-(5-methyl-2-((tetrahydro-2H-pyran-3-yl)amino)pyrimidin-4-yl)-1H-pyrrole-3-carboxamide]
13 | 500 to 2500 nM | 100 to 250 nM | 250 to 500 nM | – | – | – | COc1cc(Nc2ncc(C)c(-n3ccc(C(=O)NC(CO)c4ccccc4)c3)n2)ccc1F (stereo not drawn) [Example 154, 1-(2-((4-fluoro-3-methoxy-phenyl)amino)-5-methyl-pyrimidin-4-yl)-N-(2-hydroxy-1-phenylethyl)-1H-pyrrole-3-carboxamide]
14 | 250 to 500 nM | 500 to 2500 nM | 100 to 250 nM | – | – | – | Cc1cnc(Nc2ccc(F)cc2)nc1-n1cnc(C(=O)NC(CO)c2cccc(Cl)c2)c1 (stereo not drawn) [Example 155, N-(1-(3-chlorophenyl)-2-hydroxy-ethyl)-1-(2-((4-fluoro-phenyl)amino)-5-methyl-pyrimidin-4-yl)-1H-imidazole-4-carboxamide]
15 | 250 to 500 nM | 500 to 2500 nM | 250 to 500 nM | – | – | – | Cc1cnc(NC2CCOC2)nc1-n1ccc(C(=O)N[C@H](CO)c2ccc(F)c(Cl)c2)c1 (stereo partly drawn) [Example 157, N-((S)-1-(3-chloro-4-fluorophenyl)-2-hydroxy-ethyl)-1-(5-methyl-2-((tetrahydro-furan-3-yl)amino)pyrimidin-4-yl)-1H-pyrrole-3-carboxamide]
16 | 500 to 2500 nM | 500 to 2500 nM | > 2500 nM | – | – | – | CC(=O)NCC(NC(=O)c1ccn(-c2nc(Nc3ccc4c(c3)OC(F)(F)O4)ncc2C)c1)c1cccc(Cl)c1 (stereo not drawn) [Example 158, N-(2-acetamido-1-(3-chloro-phenyl)-ethyl)-1-(2-((2,2-difluoro-benzo[d][1,3]dioxol-5-yl)-amino)-5-methyl-pyrimidin-4-yl)-1H-pyrrole-3-carboxamide]
17 | ≤ 100 nM | 250 to 500 nM | ≤ 100 nM | – | – | – | Cc1cnc(N[C@H]2CCOC2)nc1-n1ccc(C(=O)N[C@H](CO)c2cccc(Cl)c2)c1 [Example 161, N-((S)-1-(3-chlorophenyl)-2-hydroxy-ethyl)-1-(5-methyl-2-(((S)-tetra-hydrofuran-3-yl)amino)pyrimidin-4-yl)-1H-pyrrole-3-carboxamide]
18 | 100 to 250 nM | 500 to 2500 nM | ≤ 100 nM | – | – | – | Cc1cnc(N[C@@H]2CCOC2)nc1-n1ccc(C(=O)N[C@H](CO)c2cccc(Cl)c2)c1 [Example 162, N-((S)-1-(3-chlorophenyl)-2-hydroxy-ethyl)-1-(5-methyl-2-(((R)-tetra-hydrofuran-3-yl)amino)pyrimidin-4-yl)-1H-pyrrole-3-carboxamide]
19 | 250 to 500 nM | 500 to 2500 nM | 500 to 2500 nM | – | – | – | Cc1cnc(Nc2ccc(F)cc2Cl)nc1-n1ccc(C(=O)NC(CN)c2cccc(Cl)c2)c1 (stereo not drawn) [Example 169, N-(2-amino-1-(3-chlorophenyl)ethyl)-1-(2-((2-chloro-4-fluorophenyl)amino)-5-methylpyrimidin-4-yl)-1H-pyrrole-3-carboxamide]

Reference: patent US11925629B2, “Heterocyclic inhibitors of ERK1 and ERK2 and their use in the treatment of cancer” (Asana Biosciences, LLC, priority 2015, dated 2024)
